From PMC8274277 (Antiviral Research, 2021)
Like-named read-outs stand apart in the source and are kept apart here.

Columns and labels:
[1] = tested on: SARS-CoV-2; assay type: cell-based, SARS-CoV-2 strain BavPat1; conditions: VeroE6 cells
[2] = tested on: SARS-CoV-2; parameters: species or system golden Syrian hamsters; conditions: hamster, in vivo
[3] = tested on: SARS-CoV-2; test: Antiviral assay using bronchial human airway epithelium; assay type: cell-based, SARS-CoV-2 strain BavPat1
[4] = tested on: SARS-CoV-2; test: Lung histology of infected hamsters; assay type: in vivo, golden Syrian hamsters; conditions: sacrificed at 5 dpi
[5] = hospitalized COVID-19 patients; ref Aman et al., 2021; cited from earlier work

What does the source list for `O=C(Nc1ccc(OC(F)(F)Cl)cc1)c1cnc(N2CC[C@@H](O)C2)c(-c2cc[nH]n2)c1` [Asciminib]?
selectivity Index (SI, CC50/EC50) [1]: 1.1; antiviral activity ([1]; SARS-CoV-2): did not show any antiviral activity

Which “lung infectious titers (TCID50 assay)” value [2] does the source give for `NC(=O)c1nc(F)c[nH]c1=O` [Favipiravir] here?
Its value is “significant reductions”.

And the “lung viral RNA yields (RT-qPCR)” value [2]?
Its value is “significant reductions”.

What about the “viral replication in clarified lung homogenates and plasma” value [2] of the same compound?
Its value is “significant reduction of viral replication”.

With `Cc1ccc(NC(=O)c2ccc(CN3CCN(C)CC3)cc2)cc1Nc1nccc(-c2cccnc2)n1` [Imatinib] as the compound, how does the “viral RNA yields in apical washes” value [3] read?
The value was “small significant reduction”.

And the “antiviral activity (viral RNA yields and infectious titres in apical washes)” value ([3]; […], imatinib 10, 5, remdesivir 10 μM)?
The value was “no other significant antiviral activity”.

And the “molecular plasma viral loads” value ([2]; po)?
Its value is “did not affect significantly”.

And the “lung histopathological impairements vs untreated group” value ([4]; first experiment, 32 mg/day)?
The value was “significant improvement”.

And the “lung histopathology grade severity” value ([4]; second experiment, 32, 16 and 8 mg/day)?
The value was “did not led to a significant improvement”.

And the “time to discontinuation of supplemental oxygen and mechanical ventilation” value [5]?
The value was “does not reduce the time to discontinuation of supplemental oxygen and mechanical ventilation”.

With `Cc1ccc(NC(=O)c2ccc(CN3CCN(C)CC3)cc2)cc1Nc1nc(-c2cccnc2)cs1` [Masitinib] as the compound, how does the “selectivity Index (SI, CC50/EC50)” value [1] read?
Its value is 11.5.

Which “antiviral activity (viral RNA yields and infectious titres in apical washes)” value [3] does the source give for `CCC(CC)COC(=O)[C@H](C)N[P@](=O)(OC[C@H]1O[C@@](C#N)(c2ccc3c(N)ncnn23)[C@H](O)[C@@H]1O)Oc1ccccc1` [Remdesivir] here?
The value was “strong antiviral activity”.
